Series [1] concerns A549 cells-derived tumors. Kind of series: Phospholipids, phosphatidylcholine and phosphatidylethanolamine in tumor lipid extracts. Type of series: in vivo, mice. On the procedure:
Lipids were extracted from si-NT-TTs and si-hSMAC-A-TTs as described previously (Folch, J., M. et al., 1957. J Biol Chem, 226(1): p. 497-509.). Briefly, 10-20 mg of tissue were added to CHCl3/MeOH (2:1, v/v) (7.5 mg/ml) and homogenized twice using ultrasound sonication. Water (12 μl/mg) was added to the suspension; the tube was closed with a glass cap and shaken at room temperature for 2 h at 400 rpm. The suspension was heated to 60° C. for […] and subsequently stored at 8° C. for more than 1 h in order to denature proteolipids. Undissolved material was separated by filtration through a Syringe Filter (0.4 μm pore). After evaporation of solvent, the residue was re-dissolved in CHCl3/MeOH. The suspension was filtered and the solvent was evaporated again. The weight of the extracted lipids was determined.
Phospholipids content of the lipids extracted from si-NT-TTs and si-hSMAC-A-TTs as described above was determined based on the formation of a complex of the phospholipids with ammonium ferrothiocyanate as described previously (Stewart, J. C., 1980. Anal Biochem, 104(1): p. 10-14). The absorbance at 488 nm was determined and the amounts of phospholipids were calculated using phosphatidylcholine (PC) a standard (10-100 μg). For phosphatidylcholine (PC) determination, samples of the extracted lipids were analyzed using ammonium thiocyanatocobaltate reagent as described previously (Yoshida, Y., E. et al., 1979. J Biochem, 86(3): p. 825-828). The absorbance at 316 nm was measured and PC amount was calculated using a phosphatidylcholine standard (10-100 μg).
Phosphatidylethanolamine (PE) content of the lipids extracted from si-NT-TTs and si-hSMAC-A-TTs was measured using a fluorescence-based assay as described previously (Jae-Yeon Choi et al. 2018. J. Biol. Chem 293, 1493-1503). Briefly, samples of lipid extracted from tumors as described above were dissolved in chloroform and after then chloroform was evaporated under gas nitrogen. The dried extract was then re-suspended in 0.8 mM Triton X-100. To 20 μl of lipid samples, reaction mixture including 50 μl reaction buffer (80 mM NaCl, 2 mM KPO4, pH 7.4), 30 μL H2O and 12.5 μl borate buffer (100 mM boric acid, NaCl 75 mM, sodium tetraborate 25 mM, pH, 9) were added and placed in 96 well plate and mixed well. 12.5 μl of 100 μM distyrylbenzene-bis-aldehyde (DSB-3), kindly provided by Prof. Uwe Bunz, (Organisch-Chemisches Institute, Heidelberg, Germany) prepared in 10 mM KH2PO4, pH 7.4 were then added. After 2 h of incubation in dark with shaking at 100 rpm, fluorometric detection of PE was carried out at λex=403 nm, λem=508 nm, using a plate reader. A standard curve using purified PE was carried out in parallel.
The amounts of total phospholipids and PC in si-NC-TTs and si-SMAC-A-TTs lipid extracts were analyzed (FIG. 10F). […]

Series [2] relates to A549 lung cancer xenografts. Kind of series: Histology and IHC of residual tumor morphology (H&E, SP-C, podoplanin, CD31, α-SMA). Type of series: in vivo, mice. On the procedure:
Tissue microarrays (MC5003, LC807) containing cancer and normal tissues purchased from US Biomax (US Biomax, Inc. USA) and formalin-fixed and paraffin-embedded tumor sections were immunohistochemistry (IHC) stained. Sections were deparaffinized using xylene and a graded ethanol series. Endogenous peroxidase activity was blocked by incubating the sections in 3% H2O2 for 10 minutes. Antigen retrieval was performed in 0.01M citrate buffer (pH 6.0) in 95° C.-98° C. for 20 minutes. After washing sections with PBS containing 0.1% Triton-X100 (pH 7.4), non-specific antibody binding was reduced by incubating the sections in 10% normal goat serum for 2 hr. After decanting excess serum, sections were incubated overnight at 4° C. with primary antibodies (sources and dilutions are detailed in Supplementary Table 1). Sections were washed with PBST. For IHC, endogenous peroxidase activity was blocked by incubating the sections in 3% H2O2 for […]. After washing thoroughly with PBST, the sections were incubated for 2 h with anti-mouse or anti rabbit (1:250) secondary antibodies conjugated to HRP, as appropriate. Sections were washed five times in PBST and the peroxidase reaction was subsequently visualized by incubating with 3,3-diaminobenzidine (DAB) (ImmPact-DAB, Burlingame, CA). After rinsing in water, the sections were counterstained with hematoxylin, and mounted with Vectashield mounting medium (Vector Laboratories, Burigame, CA). Finally, the sections were observed under a microscope (Leica DM2500) and images were collected at 20× magnification with the same light intensity and exposure time.
These features can be interpreted as indicative of the cancer cells in si-hSMAC-A-TTs having undergone a differentiation process. To investigate this point, we analyzed the expression of the pulmonary-associated surfactant protein c (SP-C) ([…]), a component of the surface-active lipoprotein complex that is required for proper biophysical function of the lung, and found in alveolar epithelial type II (AT2) cells (Barkauskas, C. E. et al., 2013. J Clin Invest 123, 3025-3036). […] The expression of the AT1 cells marker podoplanin (also known as T1α, PDPN), a membranal mucin-type sialoglycoprotein (Barkauskas et al., ibid), was also assessed (FIG. 4D, 4E). […] (FIG. 4F) Photomicrograph of si-hSMAC-A-treated tumor stained with toluidine blue. Arrows indicate glandular-like clusters surrounded by a chain of cells.
In contrast, in si-NT-TTs, the CD31-positive cells were flattened and randomly dispersed over the entire area of the tumor tissue (FIG. 7G). The results of the histological analysis could reflect a scenario whereby si-NT-TTs CD31-positive cells are involved in the process of tumor angiogenesis, while in si-hSMAC-A-TTs, the cellular organization more closely resembles the normal physiological alveolar endothelial arrangement designed for 02 exchange. A schematic presentation of a cross-section through alveoli is offered for comparison with the glandular/alveolar-like structures observed in the si-hSMAC-A-TTs (compare FIGS. 7H and 7I).
Further support for this view comes from analysis of the formation of stroma in H&E-stained si-NT-TTs and si-hSMAC-A-TTs (FIG. 8).
The sub-cellular localization of SMAC/Diablo in si-NT-TTs was further analyzed by immunofluorescence staining using anti-Cyto c antibodies as mitochondria markers and confocal microscopy (data not shown). It was found SMAC/Diablo and Cyto c were co-localized in si-NT-TTs. Here too, SMAC/Diablo was found in addition to mitochondria also in the nuclei.

d = 2'-deoxy (DNA); r = 2'-OH (RNA)

Turning to “si-hSMAC-A: siRNA to human SMAC/Diablo; sense 5′AAGCGGUGUUUCUCAGAAUUGtt3′ (SEQ ID NO:20), antisense 5′AACAAUUCUGAGAAACCCGCtt3′ (SEQ ID NO:21) (sense AAGCGGUGUUUCUCAGAAUUGTT; antisense AACAAUUCUGAGAAACCCGCTT; sense: sugars from the 5' end r21 d2, backbone not given here; antisense: sugars from the 5' end r20 d2, backbone not given here)”, in series [1] (relative to si-NT-TTs), the “decrease in phospholipids and specifically PC content” value was 40-50%; the “increase in phosphatidylethanolamine (PE) levels” value is reported as 2 fold. In addition, in series [1] (tumor lipid extracts), the “decrease in PC” value worked out at 37% and the “decrease in total phospholipids” value was determined as 47%. In series [2] (mouse, in vivo), the “SMAC/Diablo by immunofluorescence in tumors” value was “no SMAC/Diablo was detected”, the “expression of AT1 marker podoplanin” value is listed as “higher expression levels”, the “organization of CD31-positive cells” value is given as “organized in a manner resembling lung alveoli” and the “staining for α-SMA” value was “significantly reduced”. In series [2] (mouse, in vivo), the “stromal structures, H&E” value was “massive fibrotic structures, resembling scar tissue”; the “tumor cell organization, H&E” value was “organized in glandular-like clusters, surrounded by a chain of cells”; the “vascular formations in stromal structures” value is given as “barely noticeable”. Also, in series [2] (vs si-NT-TTs), the “staining of SP-C” value is recorded as “No significant differences”; the “staining with Sirius red and of vimentin” value is given as “appeared to be similar”.
